Results on three compounds are retold here after patent publication US12274264B2, “Piperonylic acid derivative and application thereof” (SHENYANG SINOCHEM AGROCHEMICALS R&D CO., LTD., priority 2019, dated 2025).

Read-outs that look alike come from different tables or passages of the source. A value given as a limit tells only on which side of the number the result lay.

The test system of test [1] is Tribolium confusum adults. The experiment in a line: Determination of Tribolium confusum adults (treated feeding bran, 72 h). In kind it is in vivo. The procedure: (§1) According to the solubility of test compounds, the compounds are dissolved with acetone or dimethyl sulfoxide, and then diluted with 0.1% Tween 80 solution to form a required concentration of 50 ml test liquid. The content of the acetone or the dimethyl sulfoxide in the total solution is not more than 10%.
The test liquid was prepared in the order from low dose to high dose according to the test design. Then, the liquid of different concentrations was added to feeding bran and uniformly stirred, and dried in the shade. Then, the resulting feeding bran was collected in a paper cup. Fifty Tribolium confusum adults with consistent size were put in the paper cup. Three replicates were set for each treatment. Control check was set. The treated test materials were put in an observation room under controlled conditions. After 72 h, the number of dead and surviving adults was investigated.

Test [2] deals with Tetranychus cinnabarinus adults. As to the kind of experiment: Determination of acaricidal activity (spray on bean plant leaves with adult spider mites, mortality after 72 hours). Type of test: in vivo. As to conditions: read-out: Mortality (%) against Tetranychus Cinnabarinus Adult. As for the experimental part:
as §1
The adult spider mites were put into two true leaves of bean plants. After the number of mites was investigated, the solution of certain concentrations of test compounds was sprayed by using a handheld Airbrush. Three replicates were set for each treatment. Then the leaves were maintained in a standard observation room. After 72 hours, the number of surviving mites was investigated, and the mortality rate was calculated. Compounds I-41, KC3, KC4 and MC were selected for parallel determination of activity against Tetranychus cinnabarinus adults.

The test system of the next test is armyworm. The experiment in a line: Determination of activity against armyworm (corn leaf dip, mortality after 72 hours). As to conditions: foliar, 10 mg/L, third instar, read-out: mortality rates against armyworm. In kind it is in vivo. As for the experimental part: as §1
The middle leaves of fresh corns were cut into small sections of 3 cm, and dipped into a solution of the required concentration of test compounds for 10 seconds. After dried in shade, the middle leaves were placed in a 9 cm diameter petri dish provided with filter paper. Fourteen regular healthy test insects (third instar) were put into the leaves. Four replicates were set for each treatment. The pure water treatment was set as control check. The treated discs were placed in a chamber of 24° C., 60%-70% relative humidity and day light. After 72 hours, the number of surviving insects was investigated, and the mortality rate was calculated.

The subject of test [3] is western flower thrips nymphs. The experiment in a line: Determination of activity against western flower thrips nymphs (sprayed kidney bean leaves, mortality after 72 hours). In kind it is in vivo. As to conditions: Frankliniella occidentalis; for mortality at 10 µg/mL / mortality at 100 µg/mL: read-out: Mortality (%) against Western Flower Thrips Nymphs. As for the experimental part: as §1
Fresh kidney bean leaves cultured in the glasshouse were selected and uniformly sprayed with 1 ml of the test liquid by using a handheld Airbrush. The leaves were dried naturally and placed in a test tube. Fifteen tidy and healthy western flower thrips nymphs were put into the leaves. Three replicates were set for each treatment. The water treatment was set as control check. After the treatment, the treated tube were placed in a chamber of 24° C., 60%-70% relative humidity and day light. After 72 hours, the number of surviving insects was investigated, and the mortality was calculated.

For the next test, the system named is diamondback moth. The experiment in a line: Determination of activity against diamondback moth (cabbage leaf disc dip, mortality after 72 hours). As to conditions: Plutella xylostella, foliar, 10 mg/L, second instar, read-out: mortality rates against diamondback moth. In kind it is in vivo. As for the experimental part: as §1
The leaves of cabbage grown in greenhouse were selected, removed the surface waxy layers, punched into circular leaf discs with a diameter of 2 cm by using a puncher, and dipped into a solution of the required concentration of test compounds for 10 seconds. After dried in shade, the circular leaf discs were placed in a 9 cm diameter petri dish provided with filter paper. Ten regular healthy test insects (second instar) were put into the leaf discs. Four replicates were set for each treatment. The pure water treatment was set as control check. The treated discs were placed in a chamber of 24° C., 60%-70% relative humidity and day light. After 72 hours, the number of surviving insects was investigated, and the mortality rate was calculated.

The next test deals with trips tabaci. As to conditions: concentration of 200 ppm; cited from earlier work.
Test [4] deals with Plutella xylostella. As to conditions: concentration of 200 ppm; cited from earlier work.
The test system of a further test is Spodoptera littoralis. As to conditions: concentration of 200 ppm; cited from earlier work.
In the next test the test system is Tetranychus urticae koch. As to conditions: concentration of 200 ppm; cited from earlier work.
For a further test, the system named is Spodoptera litura. As to conditions: concentration of 1 ppm; cited from earlier work.
For test [5], the system named is Plutella xylostella. As to conditions: concentration of 1 ppm; cited from earlier work.
[6] abbreviates: 72 h, read-out: Mortality (%) against Tribolium Confusum Adults.

On to `O=C(Nc1cccc(C(=O)Nc2c(Br)cc(C(F)(C(F)(F)F)C(F)(F)F)cc2OC(F)F)c1F)c1ccc2c(c1)OC(F)(F)O2` [Compound I-41], for which the mortality (in general, the share of the test organisms that died) at 600 µg/mL was greater than 90% in [1] (600 mg/L, after 72 h, read-out: mortality rates against Tribolium confusum adults); 100% in test [2] (600 mg/L, after 72 hours); greater than 90% in test [3] (600 mg/L, after 72 hours, read-out: mortality rates against western flower thrips nymphs). Besides, the mortality at 10 µg/mL in [2] (10 mg/L, after 72 hours) is 87%; in the test on armyworm it was greater than 90%; in test [3] (10 mg/L, after 72 hours) it was 90%; in the test with diamondback moth it was greater than 90%. Further, the mortality at 100 µg/mL in test [2] (100 mg/L, after 72 hours) was 100%; in test [3] (100 mg/L, after 72 hours), 95%.

In the case of `O=C(Nc1cccc(C(=O)Nc2c(Br)cc(C(F)(C(F)(F)F)C(F)(F)F)cc2OC(F)F)c1F)c1ccccc1` [KC4], the “activities against trips tabaci” value in the test with trips tabaci was “greater than or equal to 80%”. Further, the mortality at 10 µg/mL came to 0% in test [2] (10 mg/L, after 72 hours) and 37% in test [3] (10 mg/L, after 72 hours). The mortality at 100 µg/mL stood at 0% in [2] (100 mg/L, after 72 hours) and 52% in test [3] (100 mg/L, after 72 hours). For the same compound, in [2] (600 mg/L, after 72 hours), the mortality at 600 µg/mL was 0%. Moreover, the “activities against Plutella xylostella” value in the test with Plutella xylostella [4] is listed as “greater than or equal to 80%”. Besides, the “activities against Spodoptera littoralis” value with Spodoptera littoralis was “greater than or equal to 80%”. The “activities against Tetranychus urticae koch” value in the test on Tetranychus urticae koch was “greater than or equal to 80%”.

`CN(C(=O)c1ccccc1)c1cccc(C(=O)Nc2c(Br)cc(C(F)(C(F)(F)F)C(F)(F)F)cc2C(F)(F)F)c1F` [KC3, Broflanilide]: the “activities against Spodoptera litura” value in the test on Spodoptera litura is “greater than or equal to 70%”. Further, the “activities against Plutella xylostella” value in the test on Plutella xylostella [5] was “greater than or equal to 70%”. Besides, in test [1] (setting [6]), the mortality at 5 µg/mL came to 69% and the mortality at 20 µg/mL is 80%. In test [2] (72 h), the mortality at 10 µg/mL amounted to 0%, the mortality at 100 µg/mL stood at 0% and the mortality at 600 µg/mL was found to be 0%. In [3] (72 h), the mortality at 10 µg/mL came to 33% and the mortality at 100 µg/mL was found to be 60%.
